Test results: article PMC9455338, “Design, synthesis, and biological evaluation of potent FAK-degrading PROTACs” (Journal of Enzyme Inhibition and Medicinal Chemistry, 2022)

Legend:
[1] = biological target: T1, FAK (Homo sapiens, UniProt Q05397); assay: HTRF kinase assay, % inhibition at […]; assay type: biochemical
T1 construct: gene PTK2

[2] = biological target: T1, FAK; assay: biochemical; design: HTRF KinEASE-TK kinase assay with purified FAK, inhibition of substrate phosphorylation; details: for inhibition at 0.5 µM: read-out: FAK inhibition (%)^a / 0.5 μM; for inhibition at 0.1 µM: read-out: FAK inhibition (%)^a / 0.1 μM
Description: The FAK kinase assay was performed using the HTRF® KinEASE™-TK kit (Cisbio Bioassays, France) in white 384-well small volume plates with a total working volume of 20 μL. Purified FAK enzyme was purchased from Carna Biosciences (Japan). Compounds were diluted step-by-step from a concentrated stock of 8 mM in 100% DMSO and with serial kinase reaction buffer dilutions. The IC50 measurements were performed in replicates. […] The assay plates were incubated at 30 °C for 50 min and reactions were terminated by adding 10 μL of mix 2 (Sa-XL665 + TK-Antibody-Cryptate). After a final incubation (60 min at room temperature), HTRF signals were obtained by reading plates using an Infinite® F500 microplate reader (Tecan, Switzerland). […] For IC50 measurements, values were normalised and fitted with Graphpad prism 8.3.0.

[3] = biological target: T1, FAK; assay: HTRF KinEASE-TK kinase assay, purified FAK (Carna)

T1 sequence (Q05397 2-1052): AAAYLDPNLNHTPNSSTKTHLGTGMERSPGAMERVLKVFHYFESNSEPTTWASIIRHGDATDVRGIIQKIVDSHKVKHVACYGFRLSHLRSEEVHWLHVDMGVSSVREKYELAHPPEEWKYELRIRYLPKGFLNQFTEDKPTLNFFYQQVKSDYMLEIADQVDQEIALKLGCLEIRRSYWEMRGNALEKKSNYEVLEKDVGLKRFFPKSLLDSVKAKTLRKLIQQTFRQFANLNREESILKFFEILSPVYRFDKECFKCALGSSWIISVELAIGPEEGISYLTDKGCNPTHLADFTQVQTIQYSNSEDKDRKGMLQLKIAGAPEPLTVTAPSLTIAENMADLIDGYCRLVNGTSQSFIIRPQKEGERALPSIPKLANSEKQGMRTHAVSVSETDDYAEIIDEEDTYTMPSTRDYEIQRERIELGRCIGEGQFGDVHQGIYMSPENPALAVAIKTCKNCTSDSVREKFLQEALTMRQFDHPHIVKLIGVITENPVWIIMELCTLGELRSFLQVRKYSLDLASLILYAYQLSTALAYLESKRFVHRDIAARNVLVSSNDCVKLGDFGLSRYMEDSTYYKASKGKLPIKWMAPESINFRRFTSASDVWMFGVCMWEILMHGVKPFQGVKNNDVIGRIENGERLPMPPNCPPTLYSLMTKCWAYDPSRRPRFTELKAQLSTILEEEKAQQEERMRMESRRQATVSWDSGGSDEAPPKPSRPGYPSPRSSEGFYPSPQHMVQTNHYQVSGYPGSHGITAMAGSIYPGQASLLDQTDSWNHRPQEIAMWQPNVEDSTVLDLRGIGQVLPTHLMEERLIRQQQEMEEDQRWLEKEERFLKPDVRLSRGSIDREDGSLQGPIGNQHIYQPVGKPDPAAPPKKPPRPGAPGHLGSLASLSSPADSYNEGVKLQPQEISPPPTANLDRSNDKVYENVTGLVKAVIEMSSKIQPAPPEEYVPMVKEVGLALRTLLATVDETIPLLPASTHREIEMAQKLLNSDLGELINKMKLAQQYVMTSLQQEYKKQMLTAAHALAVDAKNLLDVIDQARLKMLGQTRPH

SMILES | inhibition at 0.1 µM [1] | inhibition at 0.5 µM [2] | inhibition at 0.1 µM [2] | IC50 [3]
CN(c1ccccc1CNc1nc(Nc2ccc(N3CCN(CCCCC(=O)Nc4cccc5c4C(=O)N(C4CCC(=O)NC4=O)C5=O)CC3)cc2)ncc1C(F)(F)F)S(C)(=O)=O (stereo not shown) [A5] | 91.2% | 98% |  | 
CN(c1ccccc1CNc1nc(Nc2ccc(N3CCN(CCOCCOCCNC(=O)CNc4cccc5c4C(=O)N(C4CCC(=O)NC4=O)C5=O)CC3)cc2)ncc1C(F)(F)F)S(C)(=O)=O (stereo not shown) [A1, 2-{[2–(2,6-Dioxopiperidin-3-yl)-1,3-dioxoisoindolin-4-yl]amino}-N-(2-{2-[2–(4-{4-[(4-{[2-(N-methylmethylsulfonamido)benzyl]amino}-5-(trifluoromethyl)pyrimidin-2-yl)amino]phenyl}piperazin-1-yl)ethoxy]ethoxy}ethyl)acetamide] |  | 98% | 94.9% | 22.3 nM
CN(c1ccccc1CNc1nc(Nc2ccc(N3CCN(CCCCCCC(=O)Nc4cccc5c4C(=O)N(C4CCC(=O)NC4=O)C5=O)CC3)cc2)ncc1C(F)(F)F)S(C)(=O)=O (stereo not shown) [A7, N-[2–(2,6-Dioxopiperidin-3-yl)-1,3-dioxoisoindol-4-yl]-7–(4-{4-[(4-{[2-(N-Methylmethylsulfonamido)benzyl]amino}-5-(trifluoromethyl)pyrimidin-2-yl)amino]phenyl}piperazin-1-yl)heptamide] | 87.5% | 95.4% |  | 
CN(c1ccccc1CNc1nc(Nc2ccc(N3CCN(CCCCCCC(=O)NCCNc4cccc5c4C(=O)N(C4CCC(=O)NC4=O)C5=O)CC3)cc2)ncc1C(F)(F)F)S(C)(=O)=O (stereo not shown) [A13, N-(2-{[2–(2,6-Dioxopiperidin-3-yl)-1,3-dioxoisoindolin-4-yl]amino}ethyl)-7–(4 -{4-[(4-{[2-(N-methylmethylsulfonamido)benzyl]amino}-5-(trifluoromethyl)pyrimidin-2-yl)amino]phenyl}piperazine-1-yl)heptamide] |  | 96.9% | 84.4% | 26.4 nM
CN(c1ccccc1CNc1nc(Nc2ccc(N3CCN(CCCCCC(=O)Nc4cccc5c4C(=O)N(C4CCC(=O)NC4=O)C5=O)CC3)cc2)ncc1C(F)(F)F)S(C)(=O)=O (stereo not shown) [A6, N-(2–(2,6-Dioxopiperidin-3-yl)-1,3-dioxoisoindol-4-yl)-6–(4-{4-[(4-{[2-(N-Methylmethylsulfonamido)benzyl]amino}-5-(trifluoromethyl)pyrimidin-2-yl)amino]phenyl}piperazin-1-yl)hexanamide] |  | 96.8% | 88.2% | 24.4 nM
CN(c1ccccc1CNc1nc(Nc2ccc(N3CCN(CCCOCCC(=O)NCCNc4cccc5c4C(=O)N(C4CCC(=O)NC4=O)C5=O)CC3)cc2)ncc1C(F)(F)F)S(C)(=O)=O (stereo not shown) [A2, N-(2-{[2–(2,6-dioxopiperidin-3-yl)-1,3-dioxoisoindolin-4-yl]amino}ethyl)-3-[3–(4-{4-[(4-{[2-(N-methylmethylsulfonamido)benzyl]amino}-5-(trifluoromethyl)pyrimidin-2-yl)amino]phenyl}piperazin-1-yl)propoxy]propanamide] | 89% | 98.8% |  | 
CN(c1ccccc1CNc1nc(Nc2ccc(N3CCN(CCCCCC(=O)NCCNc4cccc5c4C(=O)N(C4CCC(=O)NC4=O)C5=O)CC3)cc2)ncc1C(F)(F)F)S(C)(=O)=O (stereo not shown) [A12, N-(2-{[2–(2,6-Dioxopiperidin-3-yl)-1,3-dioxoisoindolin-4-yl]amino}ethyl)-6–(4-{4-[(4-{[2-(N-methylmethylsulfonamido)benzyl]amino}-5-(trifluoromethyl)pyrimidin-2-yl)amino]phenyl}piperazine-1-yl)hexanamide] | 86.1% | 98% |  | 
CN(c1ccccc1CNc1nc(Nc2ccc(N3CCN(CCCCC(=O)NCCNc4cccc5c4C(=O)N(C4CCC(=O)NC4=O)C5=O)CC3)cc2)ncc1C(F)(F)F)S(C)(=O)=O (stereo not shown) [A11, N-(2-{[2–(2,6-Dioxopiperidin-3-yl)-1,3-dioxoisoindolin-4-yl]amino}ethyl)-5–(4 –{4-[(4-{[2-(N-Methylmethylsulfonamido)benzyl]amino}-5-(trifluoromethyl)pyrimidin-2-yl)amino]phenyl}piperazine-1-yl)pentanamide] | 93.5% | 98.6% |  | 
